Drawing on ChEMBL document CHEMBL3853271, “Recent progress towards an effective treatment of amyotrophic lateral sclerosis using the SOD1 mouse model in a preclinical setting” (2016), this text covers Activity and fold change (FC) for six compounds.

The test system of test [1] is Mus musculus. Description: Neuroprotective activity in transgenic mouse amyotrophic lateral sclerosis model harboring human SOD1 H46R mutant assessed as increase in survival rate at 0.1 mg/kg, ig administered daily starting at day of disease onset until disease end stage relative to control. Type of test: functional.
In test [2] the test system is Mus musculus. Put plainly: Neuroprotective activity in transgenic mouse amyotrophic lateral sclerosis model harboring human SOD1 H46R mutant assessed as increase in survival rate at 0.5 mg/kg, ig administered daily starting at day of disease onset until disease end stage relative to control. In kind it is functional.
Test [3] relates to Mus musculus. Put plainly: Neuroprotective activity in transgenic mouse amyotrophic lateral sclerosis model harboring human SOD1 H46R mutant assessed as ChAT-positive motor neurons loss in anterior horn at 0.5 mg/kg, ig administered daily starting at day of disease onset until disease end stage by immunostaining method (reference value: 43%). In kind it is functional.
In test [4] the test system is Mus musculus. Put plainly: Neuroprotective activity in transgenic mouse amyotrophic lateral sclerosis model harboring SOD1 […] mutant assessed as prolongation of survival at 10 ug/kg, administered through gastric tube daily started between day 88 to 106 of disease onset until disease end stage relative to control. Type of test: functional.
In test [5] the test system is Mus musculus. Description: Neuroprotective activity in transgenic mouse amyotrophic lateral sclerosis model harboring human SOD1 H46R mutant assessed as prolongation of survival at 1 to 100 ug/kg, administered through gastric tube daily started between day 121 to 130 of disease onset until disease end stage relative to control. Type of test: functional, Stomach.
Test [6] deals with Mus musculus. Description: Neuroprotective activity in transgenic mouse amyotrophic lateral sclerosis model harboring SOD1 G93A mutant assessed as increase in survival rate at 60 mg/kg, administered via oral gavage started from first day of symptomatic onset until disease end stage relative to control. In kind it is functional.
Test [7] deals with Mus musculus. Description: Neuroprotective activity in transgenic mouse amyotrophic lateral sclerosis model harboring SOD1 G93A mutant assessed as death of motor neurons in lumbar spinal cord at 10 mg/kg, po measured at 7 days post disease onset by immunostaining method (reference value: 58%). In kind it is functional.
Test [8] deals with Mus musculus. Put plainly: Neuroprotective activity in transgenic mouse amyotrophic lateral sclerosis model harboring SOD1 G93A mutant assessed as death of motor neurons in lumbar spinal cord at 4 mg/kg, ip administered every other day started from postnatal day 40 until disease end stage by immunostaining method (reference value: 71%). In kind it is functional.
The subject of test [9] is Mus musculus. Put plainly: Neuroprotective activity in transgenic C57/BL6 mouse amyotrophic lateral sclerosis model harboring SOD1 G93A mutant assessed as decrease in misfolded SOD1 levels in spinal cord at 4 mg/kg, ip administered twice weekly started from postnatal day 40 until disease end stage by immunoprecipitation method relative to control. Set-up: scale not given: the % may be the effect or the level left. Type of test: functional.

Test [10] can be described thus: Neuroprotective activity in transgenic C57/BL6 mouse amyotrophic lateral sclerosis model harboring SOD1 G93A mutant assessed as upregulation of HSP70 levels in spinal cord at 4 mg/kg, ip administered twice weekly started from postnatal day 40 until disease end stage by Western blot method relative to control. In kind it is functional, organism-based. For orientation: A western blot detects proteins with antibodies after separation by electrophoresis.

Test [11] can be described thus: Neuroprotective activity in transgenic C57/BL6 mouse amyotrophic lateral sclerosis model harboring SOD1 G93A mutant assessed as upregulation of HSP25 levels in spinal cord at 4 mg/kg, ip administered twice weekly started from postnatal day 40 until disease end stage by Western blot method relative to control. In kind it is functional, organism-based.

In the case of `Cc1cc(C)c(OCC(=O)Nc2nc(-c3ccccn3)cs2)c(C)c1`, the Activity is 11% in [1], 16% in test [2] and 23% in test [3].

Take `Cc1cc(C)c(N(C)CC(=O)Nc2nc(-c3ccccn3)c[nH]2)c(C)c1.Cl.Cl.Cl`: the Activity in test [4] was determined as 14%; in test [5], 20%. Turning to `CCCCC1OC(=O)c2ccccc21` (racemic) [RAC-3-N-BUTYLPHTHALIDE], the Activity in test [6] was determined as 42%.

In the case of `O=C(/C=C/c1ccc(O)c(O)c1)OCCc1ccccc1` [CAFFEIC ACID PHENETHYL ESTER], in test [7], the Activity stood at 10%.

As for `N=C(N)N/N=C/c1c(Cl)cccc1Cl` [GUANABENZ], in [8], the Activity turned out to be 44%. For the compound `CC1=C(CO)C(=O)O[C@@H]([C@@H](C)[C@H]2CC[C@H]3[C@@H]4C[C@H]5O[C@]56[C@@H](O)C=CC(=O)[C@]6(C)[C@H]4CC[C@]23C)C1` [WITHAFERIN A], the Activity in test [9] was found to be 39%. The fold change (FC) in test [10] was determined as 2.2; in [11] it was 2.6.
